Values quoted from earlier work, collected in US20220125854A1, “PREPARATION AND EXTENDED CULTURE OF VASCULAR ENDOTHELIAL PROGENITOR CELL” (PUBLIC UNIVERSITY CORPORATION NAGOYA CITY UNIVERSITY, priority 2019, published 2022).

Experiments:
Conditions in all cases: report
HUVECs = system: HUVECs
[1] = system: ECs derived from ES cells
[2] = system: ECs derived from iPS cells

Cc1c[nH]c(-c2cnc(NCCNc3ccc(C#N)cn3)nc2-c2ccc(Cl)cc2Cl)n1 [CHIR 99021]
proliferation potency of HUVECs (HUVECs): enhances the proliferation potency

NC(=O)c1ccc(-c2nc(-c3ccccn3)c(-c3ccc4c(c3)OCO4)[nH]2)cc1 [SB 43152]
proliferation potency of ECs derived from ES cells [1]: enhances the proliferation potency

C[C@@H](N)[C@H]1CC[C@H](C(=O)Nc2ccncc2)CC1 [Y-27632]
proliferation potency of ECs derived from iPS cells [2]: enhancing the proliferation potency
